We go through 2 compounds from patent publication US8222236B2, “2-methylene-(20E)-20(22)-dehydro-19-nor-vitamin D analogs” (Wisconsin Alumni Research Foundation, priority 2008, dated 2012).

Molecules are shown by their SMILES. pEC50, pKi: −log10 of the molar value. Entries after “also recorded” stand apart in the source; their conditions may differ.

Broadly, the pEC50 is the EC50 on a negative log10 scale, so that one unit is a factor of ten. Usually pKi stands for the Ki on a negative log10 scale, so that one unit is a factor of ten.

One assay deals with HL-60 cells. Description: HL-60 cell differentiation (nitro blue tetrazolium reduction). Format: cell-based, human. Conditions: FIG. 2; for pEC50: HL-60 cells, 4 days. The method, then: The study drugs were dissolved in ethanol and the concentrations determined using UV spectrophotometry. Serial dilutions were prepared so that a range of drug concentrations could be tested without changing the final concentration of ethanol (≦0.2%) present in the cell cultures.
Human promyelocytic leukemia (HL60) cells were grown in RPMI-1640 medium containing 10% fetal bovine serum. The cells were incubated at 37° C. in the presence of 5% CO2.
HL60 cells were plated at 1.2×10^5 cells/ml. Eighteen hours after plating, cells in duplicate were treated with drug. Four days later, the cells were harvested and a nitro blue tetrazolium reduction assay was performed (Collins et al., 1979; J. Exp. Med. 149:969-974). The percentage of differentiated cells was determined by counting a total of 200 cells and recording the number that contained intracellular black-blue formazan deposits. Verification of differentiation to monocytic cells was determined by measuring phagocytic activity (data not shown).

Assay [1] concerns intestinal calcium transport. Briefly: Intestinal calcium transport, everted gut sac method, vitamin D-deficient rats. The class given is in vivo, rat. As to conditions: FIG. 5; for intestinal calcium transport at 260 pmol/day, in words: ip, 4 consecutive days. The method, then: (§1) Male, weanling Sprague-Dawley rats were placed on Diet 11 (0.47% Ca) diet +AEK oil for one week followed by Diet 11 (0.02% Ca) +AEK oil for 3 weeks. The rats were then switched to a diet containing 0.47% Ca for one week followed by two weeks on a diet containing 0.02% Ca. Dose administration began during the last week on 0.02% calcium diet. Four consecutive ip doses were given approximately 24 hours apart. Twenty-four hours after the last dose, blood was collected from the severed neck and the concentration of serum calcium determined as a measure of bone calcium mobilization. The first 10 cm of the intestine was also collected for intestinal calcium transport analysis using the everted gut sac method.

Assay [2] deals with bone calcium mobilization. Briefly: Bone calcium mobilization (serum calcium) in vitamin D-deficient rats. The class given is in vivo, rat. As to conditions: 0.02% Ca diet, FIG. 4. The procedure:
as §1

Assay [3] concerns 24-hydroxylase (24Ohase) gene promoter. Description: In vitro transcription assay, 24-hydroxylase gene promoter luciferase reporter in ROS 17/2.8 (bone) cells. Conditions: ROS 17/2.8 cells, 24-hydroxylase promoter-luciferase, 16 hours; FIG. 3; read-out: EC50, transcriptional activity in bone cells. The class given is cell-based. The method, then:
Transcription activity was measured in ROS 17/2.8 (bone) cells that were stably transfected with a 24-hydroxylase (24Ohase) gene promoter upstream of a luciferase reporter gene (Arbour et al., 1998). Cells were given a range of doses. Sixteen hours after dosing the cells were harvested and luciferase activities were measured using a luminometer.
RLU=relative luciferase units.
(A reporter such as luciferase makes a cellular process visible.)

In assay [4] the target is T1, full-length recombinant rat vitamin D receptor (Rattus norvegicus, UniProt P13053).
T1 construct: Full-length recombinant rat receptor was expressed in E. coli BL21 (DE3) Codon Plus RIL cells; histidine tag (C); made in house; host or cells: E. coli BL21 (DE3) Codon Plus RIL
T1 sequence (P13053 1-423): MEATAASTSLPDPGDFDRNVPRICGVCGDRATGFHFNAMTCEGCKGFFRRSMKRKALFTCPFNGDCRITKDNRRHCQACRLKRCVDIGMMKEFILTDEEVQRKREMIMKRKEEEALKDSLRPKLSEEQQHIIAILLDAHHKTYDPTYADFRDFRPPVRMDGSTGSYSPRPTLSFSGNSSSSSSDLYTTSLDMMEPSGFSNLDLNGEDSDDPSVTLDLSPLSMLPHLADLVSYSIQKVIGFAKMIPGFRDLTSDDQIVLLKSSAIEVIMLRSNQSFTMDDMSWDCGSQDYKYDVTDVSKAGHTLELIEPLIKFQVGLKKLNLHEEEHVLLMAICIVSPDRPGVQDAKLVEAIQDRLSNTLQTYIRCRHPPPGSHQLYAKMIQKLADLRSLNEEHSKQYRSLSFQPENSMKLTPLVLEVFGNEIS
Briefly: Vitamin D receptor competitive binding with [3H]-1,25(OH)2D3. Conditions: FIG. 1. The method, then: Full-length recombinant rat receptor was expressed in E. coli BL21 (DE3) Codon Plus RIL cells and purified to homogeneity using two different column chromatography systems. The first system was a nickel affinity resin that utilizes the C-terminal histidine tag on this protein. The protein that was eluted from this resin was further purified using ion exchange chromatography (S-Sepharose Fast Flow). Aliquots of the purified protein were quick frozen in liquid nitrogen and stored at −80° C. until use. For use in binding assays, the protein was diluted in TEDK50 (50 mM Tris, 1.5 mM EDTA, pH7.4, 5 mM DTT, 150 mM KCl) with 0.1% Chaps detergent. The receptor protein and ligand concentration were optimized such that no more than 20% of the added radiolabeled ligand was bound to the receptor.
Radiolabeled and unlabeled ligands were added to 100 mcl of the diluted protein at a final ethanol concentration of ≦10%, mixed and incubated overnight on ice to reach binding equilibrium. The following day, 100 mcl of hydroxylapatite slurry (50%) was added to each tube and mixed at 10-minute intervals for 30 minutes. The hydroxylapaptite was collected by centrifugation and then washed three times with Tris-EDTA buffer (50 mM Tris, 1.5 mM EDTA, pH 7.4) containing 0.5% Titron X-100. […] Total binding was determined from the tubes containing only radiolabeled ligand.

With `C=C1/C(=C\C=C2/CCC[C@]3(C)[C@@H]([C@H](C)CCCC(C)(C)O)CC[C@@H]23)C[C@@H](O)C[C@@H]1O` [1,25(OH)2D3, 1α,25-dihydroxyvitamin D3, reference compound], in the assay on HL-60 cells, the pEC50 was 8.70. The “intestinal calcium transport at 260 pmol/day, in words” value in assay [1] was “significant increase”. In addition, the “bone calcium mobilization activity (serum calcium), in words” value in assay [2] is given as “increased serum calcium levels at all dosages”. For the same compound, the “dose giving the same mobilization of bone calcium” value in assay [2] (ip, 4 consecutive days) is 87 pmol/day.

On to `C=C1[C@H](O)CC(=C/C=C2\CCC[C@]3(C)[C@@H](/C(C)=C/CCC(C)(C)O)CC[C@@H]23)C[C@H]1O` [Vit III 20-22E, 2-methylene-(20E)-20(22)-dehydro-19-nor-1α,25-dihydroxyvitamin D3], for which the pEC50 in assay [3] is 10.70. The “potency on HL-60 cell differentiation relative to 1,25(OH)2D3” value in the assay on HL-60 cells lay within 3 to 4 times. Further, the pEC50 in the assay with HL-60 cells (Homo sapiens, 96 h) is 9.10. Besides, in assay [1], the “intestinal calcium transport at 260 pmol/day, in words” value is listed as “promotes intestinal calcium transport”. Besides, the “intestinal calcium transport activity, in words” value in assay [1] (vitamin D-deficient rats) is on record as “about the same activity; also recorded: about the same as or equal to 1,25(OH)2D3”. Also, in assay [4], the “VDR binding affinity compared to 1,25(OH)2D3” value is reported as “bound with the same affinity”. The pKi in assay [4] (full-length recombinant rat VDR, read-out: Ki, competition with [3H]-1,25(OH)2D3 for binding to the vitamin D receptor) was 10.00. In addition, the “bone calcium mobilization activity (serum calcium), in words” value in assay [2] is listed as “less bone calcium mobilization activity; also recorded: relatively low, or little, activity in mobilizing calcium from bone”. For the same compound, in assay [2] (ip, 4 consecutive days), the “dose at which any substantial effect on bone calcium mobilization was seen” value is reported as 7020 pmol/day and the “dose giving the same mobilization of bone calcium” value was 780 pmol/day.
